Values joined by “and” are separate entries in the source; they are usually repeats but may differ in a detail not shown here. Equal values may be shown once.
Experiments:
FMND/CYP21A2 [1] = biological target: T1, FMND/CYP21A2 (Homo sapiens, UniProt P08686+P16435, R103K); format: biochemical; details: progesterone 21-hydroxylation, cumene hydroperoxide, FMND/CYP21A2 vs CYP21A2
T1 sequence (P16435+P08686 with tags, fused parts or gaps P08686:R103K): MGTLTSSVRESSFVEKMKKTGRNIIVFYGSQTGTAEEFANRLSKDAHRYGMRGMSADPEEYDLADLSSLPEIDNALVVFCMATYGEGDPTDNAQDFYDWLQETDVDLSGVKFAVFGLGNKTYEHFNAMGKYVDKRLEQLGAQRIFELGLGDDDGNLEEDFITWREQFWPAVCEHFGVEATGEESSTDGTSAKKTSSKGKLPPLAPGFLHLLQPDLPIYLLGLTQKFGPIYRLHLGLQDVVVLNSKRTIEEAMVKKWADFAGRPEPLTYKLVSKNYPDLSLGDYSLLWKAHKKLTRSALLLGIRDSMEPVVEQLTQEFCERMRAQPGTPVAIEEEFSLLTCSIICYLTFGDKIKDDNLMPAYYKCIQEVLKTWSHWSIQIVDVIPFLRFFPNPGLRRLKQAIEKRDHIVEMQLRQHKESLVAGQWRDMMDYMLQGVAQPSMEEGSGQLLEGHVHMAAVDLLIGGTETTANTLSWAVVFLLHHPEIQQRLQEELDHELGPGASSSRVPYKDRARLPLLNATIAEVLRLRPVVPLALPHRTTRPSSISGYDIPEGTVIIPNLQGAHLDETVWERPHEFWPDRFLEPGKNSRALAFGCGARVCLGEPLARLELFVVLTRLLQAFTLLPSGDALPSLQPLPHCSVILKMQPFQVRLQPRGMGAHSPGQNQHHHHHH

FMND/CYP17A1 [2] = biological target: T2, FMND/CYP17A1 (Homo sapiens, UniProt P05093+P16435); format: biochemical; details: progesterone 17α-hydroxylation, cumene hydroperoxide
T2 sequence (P16435+P05093 with tags, fused parts or gaps): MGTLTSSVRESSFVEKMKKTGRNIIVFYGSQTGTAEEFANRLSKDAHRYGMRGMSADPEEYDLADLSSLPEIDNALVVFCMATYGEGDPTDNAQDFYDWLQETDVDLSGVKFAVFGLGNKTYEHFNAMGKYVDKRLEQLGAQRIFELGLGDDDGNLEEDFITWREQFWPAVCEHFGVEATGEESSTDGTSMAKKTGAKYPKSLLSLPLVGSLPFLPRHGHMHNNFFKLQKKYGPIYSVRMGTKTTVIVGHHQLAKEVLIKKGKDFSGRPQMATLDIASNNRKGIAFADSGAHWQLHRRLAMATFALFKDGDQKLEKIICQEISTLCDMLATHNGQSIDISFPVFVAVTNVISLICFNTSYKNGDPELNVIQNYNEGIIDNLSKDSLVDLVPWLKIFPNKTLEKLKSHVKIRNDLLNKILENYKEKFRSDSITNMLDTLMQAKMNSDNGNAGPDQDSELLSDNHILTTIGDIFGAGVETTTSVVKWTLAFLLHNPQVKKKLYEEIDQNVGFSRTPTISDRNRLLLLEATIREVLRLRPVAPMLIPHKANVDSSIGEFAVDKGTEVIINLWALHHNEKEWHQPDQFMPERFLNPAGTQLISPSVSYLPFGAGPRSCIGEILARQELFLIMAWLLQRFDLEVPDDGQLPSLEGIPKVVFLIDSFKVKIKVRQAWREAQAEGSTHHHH

FMND/CYP17A1 [3] = biological target: T2, FMND/CYP17A1; format: binding; details: for spectral shift (binding mode): difference spectra, FMND/CYP17A1 fusion, FMN domain oxidized
CYP17A1 = biological target: T3, CYP17A1 (Homo sapiens, UniProt P05093); assay: UV-visible spectral ligand binding assay, isolated CYP17A1; details: difference spectra
T3 sequence (P05093 with tags, fused parts or gaps): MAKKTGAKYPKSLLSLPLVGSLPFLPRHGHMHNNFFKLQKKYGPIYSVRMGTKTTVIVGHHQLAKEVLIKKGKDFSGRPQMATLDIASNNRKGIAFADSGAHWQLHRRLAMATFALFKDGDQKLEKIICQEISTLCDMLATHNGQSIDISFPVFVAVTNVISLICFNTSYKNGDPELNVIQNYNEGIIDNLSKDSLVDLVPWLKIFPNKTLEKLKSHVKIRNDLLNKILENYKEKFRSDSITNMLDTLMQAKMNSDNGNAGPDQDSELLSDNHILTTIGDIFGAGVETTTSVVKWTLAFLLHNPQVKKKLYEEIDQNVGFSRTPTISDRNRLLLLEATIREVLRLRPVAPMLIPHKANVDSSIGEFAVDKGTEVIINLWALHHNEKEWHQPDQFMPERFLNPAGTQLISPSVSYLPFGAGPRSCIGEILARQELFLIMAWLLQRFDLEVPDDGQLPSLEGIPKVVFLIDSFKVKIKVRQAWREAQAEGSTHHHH

FMND/CYP21A2 [4] = biological target: T1, FMND/CYP21A2; format: binding
CYP21A2 = biological target: T4, CYP21A2 (Homo sapiens, UniProt P08686, R103K); assay: UV-visible spectral ligand binding assay, isolated CYP21A2; details: difference spectra
T4 sequence (P08686 with tags, fused parts or gaps R103K limits assumed): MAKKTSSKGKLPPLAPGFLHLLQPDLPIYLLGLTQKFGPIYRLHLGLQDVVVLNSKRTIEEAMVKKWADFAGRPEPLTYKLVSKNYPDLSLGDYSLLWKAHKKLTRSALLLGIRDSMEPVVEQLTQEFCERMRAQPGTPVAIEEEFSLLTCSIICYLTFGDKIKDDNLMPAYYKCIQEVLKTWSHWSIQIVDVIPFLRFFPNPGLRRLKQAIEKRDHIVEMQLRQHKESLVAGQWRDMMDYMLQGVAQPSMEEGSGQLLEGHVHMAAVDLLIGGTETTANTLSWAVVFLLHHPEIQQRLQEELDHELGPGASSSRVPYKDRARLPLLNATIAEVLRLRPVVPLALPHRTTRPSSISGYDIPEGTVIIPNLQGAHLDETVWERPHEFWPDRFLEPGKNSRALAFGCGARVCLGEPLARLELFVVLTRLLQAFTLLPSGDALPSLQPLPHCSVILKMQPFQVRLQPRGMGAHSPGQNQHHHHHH

FMND/CYP3A4 = FMND/CYP3A4 (Homo sapiens, UniProt P08684); details: FMND/CYP3A4 compared with CYP3A4
FMND/CYP2A6 [5] = biological target: T5, FMND/CYP2A6 (Homo sapiens, UniProt P11509); format: biochemical; details: coumarin metabolism to 7-hydroxycoumarin, cumene hydroperoxide, FMND/CYP2A6 vs CYP2A6
T5 sequence (P11509 with tags, fused parts or gaps): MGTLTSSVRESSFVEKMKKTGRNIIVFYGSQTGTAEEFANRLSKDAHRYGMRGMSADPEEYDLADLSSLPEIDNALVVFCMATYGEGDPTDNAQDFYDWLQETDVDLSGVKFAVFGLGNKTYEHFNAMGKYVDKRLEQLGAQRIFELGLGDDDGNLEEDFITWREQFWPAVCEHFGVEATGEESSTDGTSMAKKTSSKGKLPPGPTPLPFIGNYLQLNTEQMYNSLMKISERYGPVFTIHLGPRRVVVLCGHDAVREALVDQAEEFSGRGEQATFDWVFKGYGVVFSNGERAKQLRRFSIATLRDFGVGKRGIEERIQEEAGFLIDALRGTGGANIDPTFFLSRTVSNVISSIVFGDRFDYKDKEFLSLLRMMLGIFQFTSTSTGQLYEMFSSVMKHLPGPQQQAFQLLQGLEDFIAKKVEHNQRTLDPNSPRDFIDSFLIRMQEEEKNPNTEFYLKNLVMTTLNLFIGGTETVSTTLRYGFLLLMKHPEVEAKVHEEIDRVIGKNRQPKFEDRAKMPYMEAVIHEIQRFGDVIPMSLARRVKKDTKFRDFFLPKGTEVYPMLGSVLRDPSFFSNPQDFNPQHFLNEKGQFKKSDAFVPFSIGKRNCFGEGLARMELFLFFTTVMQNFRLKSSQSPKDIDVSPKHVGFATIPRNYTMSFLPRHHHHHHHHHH

CYP2A6 = biological target: T6, CYP2A6 (Homo sapiens, UniProt P11509); assay: UV-visible spectral ligand binding assay, isolated CYP2A6; details: difference spectra
T6 sequence (P11509 with tags, fused parts or gaps): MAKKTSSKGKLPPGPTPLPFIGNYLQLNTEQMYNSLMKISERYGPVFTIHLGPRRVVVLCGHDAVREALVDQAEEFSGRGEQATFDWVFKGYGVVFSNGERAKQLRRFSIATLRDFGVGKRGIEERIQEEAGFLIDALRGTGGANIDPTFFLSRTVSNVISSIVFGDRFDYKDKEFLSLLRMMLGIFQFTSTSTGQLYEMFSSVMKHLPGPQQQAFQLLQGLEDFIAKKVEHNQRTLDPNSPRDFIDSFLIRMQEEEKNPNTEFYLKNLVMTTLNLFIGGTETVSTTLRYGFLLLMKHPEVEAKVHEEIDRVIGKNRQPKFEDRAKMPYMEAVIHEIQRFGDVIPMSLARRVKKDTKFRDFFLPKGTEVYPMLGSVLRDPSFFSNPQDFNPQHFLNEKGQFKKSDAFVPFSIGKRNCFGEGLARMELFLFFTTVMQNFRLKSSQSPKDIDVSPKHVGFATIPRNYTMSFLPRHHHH

FMND/CYP2A6 [6] = biological target: T5, FMND/CYP2A6; format: binding
[7] = FMND/CYP17A1 compared with CYP17A1
[8] = FMND/CYP21A2 compared with CYP21A2
[9] = FMND/CYP2A6 compared with CYP2A6

Q: What does the source list for CC(=O)[C@H]1CC[C@H]2[C@@H]3CCC4=CC(=O)CC[C@]4(C)[C@H]3CC[C@]12C [progesterone]?
A: effect on catalytic efficiency, in words (FMND/CYP21A2 [1]): unchanged; increase in kcat by FMN domain fusion (FMND/CYP21A2 [1]): 17%; steady-state kinetics, saturation (FMND/CYP17A1 [2]; CYP17A1 and FMND/CYP17A1): saturation could not be reached; trend of the FMN domain effect on kcat and Km, in words (FMND/CYP17A1 [2]; FMND/CYP17A1 vs CYP17A1, poorly defined): increase kcat as well as Km; increase in affinity by FMN domain fusion (FMND/CYP17A1 [3]; [7]): 17%; increase in overall binding efficiency (ΔAmax/Kd) by FMN domain fusion (FMND/CYP17A1 [3]; [7]): 38%; spectral shift (binding mode) (FMND/CYP17A1 [3]): type I; spectral shift (binding mode) (CYP17A1): type I; decrease in total / maximal absorbance change (ΔAmax) by FMN domain fusion (FMND/CYP21A2 [4]; [8]): 31% and 30%; effect of FMN domain fusion on the affinity, in words (FMND/CYP21A2 [4]; [8]): without substantially altering; spectral shift (binding mode) (FMND/CYP21A2 [4]; difference spectra, FMND/CYP21A2 fusion, FMN domain oxidized): type I; spectral shift (binding mode) (CYP21A2): type I

Q: For Clc1ccccc1C(c1ccccc1)(c1ccccc1)n1ccnc1 [clotrimazole], which “reduction in the Kd value by FMND fusion” value (FMND/CYP3A4) is on record?
A: Its value is 49%.

Q: And the “reduction in total binding / final saturation (ΔAmax) by FMND fusion” value (FMND/CYP3A4)?
A: Its value is 58%.

Q: Which results are given for O=c1ccc2ccccc2o1 [coumarin]?
A: effect on Km, in words (FMND/CYP2A6 [5]): little effect; effect on catalytic efficiency, in words (FMND/CYP2A6 [5]): decreased; spectral shift (binding mode) (CYP2A6): type I; change in total ligand binding by FMN domain fusion, in words (FMND/CYP2A6 [6]; [9]): relatively little change; increase in the Kd value by FMN domain fusion (FMND/CYP2A6 [6]; [9]): more than 2 fold; spectral shift (binding mode) (FMND/CYP2A6 [6]; difference spectra, FMND/CYP2A6 fusion, FMN domain oxidized): type I

Q: With CC(=O)[C@@]1(O)CC[C@H]2[C@@H]3CC=C4C[C@@H](O)CC[C@]4(C)[C@H]3CC[C@@]21C [17α-hydroxypregnenolone] as the molecule, how does the “decrease in Kd by FMN domain fusion” value (FMND/CYP17A1 [3]; [7]) read?
A: The value was 12%.

Q: And the “effect of FMN domain fusion on saturation (ΔAmax), in words” value (FMND/CYP17A1 [3]; [7])?
A: The value was “little effect”.

Q: And the “increase in overall binding efficiency (ΔAmax/Kd) by FMN domain fusion” value (FMND/CYP17A1 [3]; [7])?
A: Its value is 16%.

Q: What about the “spectral shift (binding mode)” value (FMND/CYP17A1 [3]) of the same molecule?
A: Its value is “type I”.

Q: What about the “spectral shift (binding mode)” value (CYP17A1) of the same molecule?
A: The value was “type I”.

— publication PMC10481364 (The Journal of Biological Chemistry, 2023)
